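Each compound was tested at five concentrations against cells in 96-well plates for 48 hours. Abbreviation: GI50, concentration required for 50% inhibition of growth.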 Active and inactive are the calls of the source. Rule as the data show it: active = GI50 up to about 1.1 µM and inactive = higher.
Legend:
Assay in all cases: NCI-60 cell line screen, 48 h
OVCAR-3 = test system: OVCAR-3
SW-620 = test system: SW-620
U-251 = test system: U-251
SN12C = test system: SN12C
ACHN = test system: ACHN
SNB-78 = test system: SNB-78
EKVX = test system: EKVX
KM-20L2 = test system: KM-20L2
NCI-H522 = test system: NCI-H522
CCRF-CEM = test system: CCRF-CEM
MOLT-4 = test system: MOLT-4
K562 = test system: K562
RPMI-8226 = test system: RPMI-8226
SK-MEL-5 = test system: SK-MEL-5
KM12 = test system: KM12
MDA-MB-435 = test system: MDA-MB-435
MDA-MB-231 = test system: MDA-MB-231
PC-3 = test system: PC-3
CAKI-1 = test system: CAKI-1
HOP-62 = test system: HOP-62

Compound: NC1=NS(=O)(=O)N=C(N)C1=Cc1ccc([N+](=O)[O-])o1
- GI50 (OVCAR-3): 18.1 µM (inactive)
- GI50 (SW-620): 18.3 µM (inactive)
- GI50 (U-251): 50.8 µM (inactive)
- GI50 (SN12C): 16.5 µM (inactive)
- GI50 (ACHN): 16.9 µM (inactive)
- GI50 (SNB-78): 19.6 µM (inactive)
- GI50 (EKVX): 17.9 µM (inactive)
- GI50 (KM-20L2): 16.6 µM (inactive)
- GI50 (NCI-H522): 17.7 µM (inactive)
- GI50 (CCRF-CEM): 9.33 µM (inactive)
- GI50 (MOLT-4): 12.6 µM (inactive)
- GI50 (K562): 6.01 µM (inactive)
- GI50 (RPMI-8226): 17.1 µM (inactive)
- GI50 (SK-MEL-5): 15.3 µM (inactive)
- GI50 (KM12): 18.5 µM (inactive)

Compound: COC(=O)Cc1c(-c2[nH]c3ccccc3c2CC(=O)OC)[nH]c2ccccc12
- GI50 (OVCAR-3): 1.41 µM (inactive)
- GI50 (SW-620): > 53.5 µM (inactive)
- GI50 (MDA-MB-435): > 54 µM (inactive)
- GI50 (U-251): 51.1 µM (inactive)
- GI50 (SN12C): > 59.4 µM (inactive)
- GI50 (MDA-MB-231): 38.7 µM (inactive)
- GI50 (ACHN): > 58.9 µM (inactive)
- GI50 (PC-3): > 49 µM (inactive)
- GI50 (EKVX): 39.4 µM (inactive)
- GI50 (NCI-H522): > 28.6 µM (inactive)
- GI50 (CCRF-CEM): > 25.2 µM (inactive)
- GI50 (MOLT-4): > 47.4 µM (inactive)
- GI50 (CAKI-1): > 37.2 µM (inactive)
- GI50 (K562): 27.7 µM (inactive)
- GI50 (RPMI-8226): > 37.7 µM (inactive)
- GI50 (SK-MEL-5): > 52.7 µM (inactive)
- GI50 (KM12): 26.3 µM (inactive)
- GI50 (HOP-62): 23.2 µM (inactive)

Compound: O=C(NCO)NCOCn1c(=O)n(CO)c(=O)n(CO)c1=O
- GI50 (OVCAR-3): 84.1 µM (inactive)
- GI50 (SW-620): 21.3 µM (inactive)
- GI50 (U-251): > 60.8 µM (inactive)
- GI50 (SN12C): > 60.7 µM (inactive)
- GI50 (ACHN): 49.1 µM (inactive)
- GI50 (SNB-78): 28.4 µM (inactive)
- GI50 (EKVX): > 100 µM (inactive)
- GI50 (KM-20L2): 38.6 µM (inactive)
- GI50 (CCRF-CEM): 14.4 µM (inactive)
- GI50 (MOLT-4): 23.4 µM (inactive)
- GI50 (CAKI-1): 40.6 µM (inactive)
- GI50 (K562): 32.1 µM (inactive)
- GI50 (RPMI-8226): 25.4 µM (inactive)
- GI50 (SK-MEL-5): 41.5 µM (inactive)
- GI50 (KM12): 31 µM (inactive)
- GI50 (HOP-62): > 100 µM (inactive)

Compound: O=C(O)[C@H](NS(=O)(=O)c1ccc2ccccc2c1)c1ccccc1
- GI50 (U-251): > 100 µM (inactive)
- GI50 (SN12C): > 100 µM (inactive)
- GI50 (ACHN): > 100 µM (inactive)
- GI50 (KM-20L2): > 100 µM (inactive)
- GI50 (NCI-H522): > 100 µM (inactive)
- GI50 (CCRF-CEM): > 100 µM (inactive)
- GI50 (MOLT-4): > 100 µM (inactive)
- GI50 (CAKI-1): > 100 µM (inactive)
- GI50 (K562): > 100 µM (inactive)
- GI50 (RPMI-8226): > 100 µM (inactive)

Compound: N#[N+][c-]1c(-c2ccccc2)n[nH]c1=O
- GI50 (OVCAR-3): > 100 µM (inactive)
- GI50 (SW-620): > 100 µM (inactive)
- GI50 (U-251): > 100 µM (inactive)
- GI50 (SN12C): > 100 µM (inactive)
- GI50 (ACHN): > 100 µM (inactive)
- GI50 (EKVX): > 100 µM (inactive)
- GI50 (KM-20L2): > 100 µM (inactive)
- GI50 (NCI-H522): > 100 µM (inactive)
- GI50 (CCRF-CEM): > 100 µM (inactive)
- GI50 (MOLT-4): > 100 µM (inactive)
- GI50 (CAKI-1): > 100 µM (inactive)
- GI50 (K562): 97.9 µM (inactive)
- GI50 (RPMI-8226): > 100 µM (inactive)
- GI50 (KM12): > 100 µM (inactive)

Compound: N=c1oc2cc(O)ccc2cc1C(=O)Nc1cccc2ccccc12
- GI50 (OVCAR-3): 7.13 µM (inactive)
- GI50 (SW-620): 3.4 µM (inactive)
- GI50 (MDA-MB-435): 1.97 µM (inactive)
- GI50 (U-251): 3.53 µM (inactive)
- GI50 (SN12C): 5.33 µM (inactive)
- GI50 (MDA-MB-231): 3.06 µM (inactive)
- GI50 (ACHN): 3.99 µM (inactive)
- GI50 (PC-3): 3.05 µM (inactive)
- GI50 (EKVX): 4.32 µM (inactive)
- GI50 (NCI-H522): 1.65 µM (inactive)
- GI50 (CCRF-CEM): 2.35 µM (inactive)
- GI50 (MOLT-4): 2.7 µM (inactive)
- GI50 (CAKI-1): 5.97 µM (inactive)
- GI50 (K562): 3.33 µM (inactive)
- GI50 (RPMI-8226): 4.45 µM (inactive)
- GI50 (SK-MEL-5): 4.23 µM (inactive)
- GI50 (KM12): 3.75 µM (inactive)
- GI50 (HOP-62): 11.3 µM (inactive)

Compound: NC1=Nc2ccccc2Sc2nncn21
- GI50 (OVCAR-3): > 100 µM (inactive)
- GI50 (SW-620): > 100 µM (inactive)
- GI50 (MDA-MB-435): > 100 µM (inactive)
- GI50 (U-251): > 100 µM (inactive)
- GI50 (SN12C): > 100 µM (inactive)
- GI50 (MDA-MB-231): 85.3 µM (inactive)
- GI50 (ACHN): > 100 µM (inactive)
- GI50 (PC-3): > 100 µM (inactive)
- GI50 (EKVX): > 100 µM (inactive)
- GI50 (NCI-H522): 77.6 µM (inactive)
- GI50 (CCRF-CEM): > 100 µM (inactive)
- GI50 (MOLT-4): > 100 µM (inactive)
- GI50 (CAKI-1): > 100 µM (inactive)
- GI50 (K562): > 100 µM (inactive)
- GI50 (RPMI-8226): > 100 µM (inactive)
- GI50 (SK-MEL-5): > 100 µM (inactive)
- GI50 (KM12): > 100 µM (inactive)
- GI50 (HOP-62): > 100 µM (inactive)

Compound: O=C(O)c1nc2ccc(Cl)cc2[nH]c1=O
- GI50 (OVCAR-3): > 100 µM (inactive)
- GI50 (SW-620): > 100 µM (inactive)
- GI50 (MDA-MB-435): > 100 µM (inactive)
- GI50 (U-251): > 100 µM (inactive)
- GI50 (SN12C): > 100 µM (inactive)
- GI50 (MDA-MB-231): > 100 µM (inactive)
- GI50 (ACHN): > 100 µM (inactive)
- GI50 (PC-3): > 100 µM (inactive)
- GI50 (EKVX): > 100 µM (inactive)
- GI50 (NCI-H522): > 100 µM (inactive)
- GI50 (CCRF-CEM): > 100 µM (inactive)
- GI50 (MOLT-4): > 100 µM (inactive)
- GI50 (CAKI-1): > 100 µM (inactive)
- GI50 (K562): > 100 µM (inactive)
- GI50 (RPMI-8226): > 100 µM (inactive)
- GI50 (SK-MEL-5): > 100 µM (inactive)
- GI50 (KM12): > 100 µM (inactive)
- GI50 (HOP-62): > 100 µM (inactive)

Compound: O=C1C=C(C2=C(C3=CC(=O)c4ccccc4C3=O)C(=O)c3ccccc3C2=O)C(=O)c2ccccc21
- GI50 (OVCAR-3): 2.84 µM (inactive)
- GI50 (SW-620): 3.79 µM (inactive)
- GI50 (MDA-MB-435): 2.47 µM (inactive)
- GI50 (U-251): 4.48 µM (inactive)
- GI50 (SN12C): 7.26 µM (inactive)
- GI50 (MDA-MB-231): 3.07 µM (inactive)
- GI50 (ACHN): 17.9 µM (inactive)
- GI50 (PC-3): 10.4 µM (inactive)
- GI50 (EKVX): 11.1 µM (inactive)
- GI50 (NCI-H522): 2.17 µM (inactive)
- GI50 (CCRF-CEM): 0.286 µM (active)
- GI50 (MOLT-4): 0.389 µM (active)
- GI50 (CAKI-1): 4.7 µM (inactive)
- GI50 (K562): 2.67 µM (inactive)
- GI50 (RPMI-8226): 3.48 µM (inactive)
- GI50 (SK-MEL-5): 9.4 µM (inactive)
- GI50 (KM12): 7 µM (inactive)
- GI50 (HOP-62): 14.8 µM (inactive)

Source: ChEMBL document CHEMBL1201862, “PubChem BioAssay data set” (2004)
